Source: PubChem BioAssay (NCI)
“And” between values parts separate entries of the source, which are not always exact repeats. Equal values may be shown once.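 96-well plates; 48 h exposure; 5 concentrations. Endpoints by linear interpolation between flanking doses. Not reached: highest tested concentration assigned. GI50: concentration for 50% inhibition of growth. At the TGI there is no net growth.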

Assays:
Test in all cases: NCI anticancer screen, dose series, 48 h
SN12C renal = system: SN12C renal
HS 578T breast = system: HS 578T breast
SK-MEL-5 melanoma = system: SK-MEL-5 melanoma
NCI-H460 lung = system: NCI-H460 lung
COLO 205 colon = system: COLO 205 colon
RPMI-8226 leukemia = system: RPMI-8226 leukemia
SF-295 CNS = system: SF-295 CNS
MCF7 breast = system: MCF7 breast
MALME-3M melanoma = system: MALME-3M melanoma
NCI/ADR-RES ovarian = system: NCI/ADR-RES ovarian

Row | SMILES | GI50 (SN12C renal) | TGI (SN12C renal) | GI50 (HS 578T breast) | TGI (HS 578T breast) | GI50 (SK-MEL-5 melanoma) | TGI (SK-MEL-5 melanoma) | GI50 (NCI-H460 lung) | TGI (NCI-H460 lung) | GI50 (COLO 205 colon) | TGI (COLO 205 colon) | GI50 (RPMI-8226 leukemia) | TGI (RPMI-8226 leukemia) | GI50 (SF-295 CNS) | TGI (SF-295 CNS) | GI50 (MCF7 breast) | TGI (MCF7 breast) | GI50 (MALME-3M melanoma) | TGI (MALME-3M melanoma) | GI50 (NCI/ADR-RES ovarian) | TGI (NCI/ADR-RES ovarian)
1 | CC/C(Cc1ccccc1)=C(\c1ccc(OCCN2CCCCCC2)cc1)c1ccc(OC(=O)NCc2ccccc2)cc1 | 1.83 µM | 6.71 µM | 2.66 µM | 11.8 µM | 1 µM | 2 µM | 0.966 µM | 1.83 µM | 1.01 µM | 1.99 µM | 1.16 µM | 2.87 µM | 6.5 µM | 13.2 µM | 0.25 µM | 5.33 µM | 0.951 µM | 1.94 µM | 3.9 µM | 12.3 µM
2 | C=CC(=O)Nc1ccc(Nc2nccc(-c3ccc(N4CCCC4)c(C#N)c3)n2)cc1 | 15.8 µM | > 25 µM | 5.15 µM | > 25 µM | 17.9 µM | > 25 µM | 4.61 µM | > 25 µM | > 25 µM | > 25 µM | 10.1 µM | > 25 µM | 9.44 µM | > 25 µM | 9.55 µM | > 25 µM | 5.06 µM | 20 µM | > 25 µM | > 25 µM
3 | O=C(/C=C/c1ccc(B(O)O)cc1)/C=C/c1ccc(B(O)O)cc1 | 3.22 µM | 13.9 µM | 1.54 µM | 5.57 µM | 1.94 µM | 4.47 µM | 8.19 µM | 23.6 µM | 2.21 µM | 4.83 µM | 2.51 µM | 8.21 µM | 2.02 µM | 5.66 µM | 0.415 µM | 3.89 µM | 6.3 µM | 20.9 µM | 17 µM | 62.9 µM
4 | C(=Nc1ccccc1)C1CCCC[N-]1.C(=Nc1ccccc1)C1CCCC[N-]1.[Cu+2].[O-][Cl+3]([O-])([O-])O (stereo not drawn) | 15.4 µM | 36.1 µM | 30.3 µM | > 89.5 µM | 8.64 µM | 27.7 µM | 11.2 µM | > 58.2 µM | 12.8 µM | > 52.2 µM | 3.52 µM | 10.9 µM | 3.13 µM | 18.8 µM | 23.8 µM | > 100 µM | 14 µM | 33.9 µM | 8.33 µM | 29.7 µM
5 | O=[As](O)(O)c1ccc(NCc2ccccc2)cc1 |  | > 100 µM |  | > 100 µM |  | > 100 µM |  | > 100 µM |  | > 100 µM |  | > 100 µM |  | > 100 µM |  | > 100 µM |  | > 100 µM |  | > 100 µM
6 | COc1ccc(-c2[nH]ncc2-c2cc3c(c(OC)c2)OCC(=O)N3)cc1 | 0.63 µM | > 100 µM | 0.298 µM | 2.24 µM | 0.595 µM | 12.8 µM | 0.365 µM | 4.79 µM | 0.465 µM | 12.8 µM | 0.796 µM | 18.9 µM | 0.398 µM | 15.2 µM | 0.315 µM | 62.4 µM | 2.75 µM | 99.1 µM | 1.43 µM | 29.2 µM
7 | O=C(O)CSCc1cccc2ccccc12 |  | > 100 µM |  | > 100 µM |  | > 100 µM |  | > 100 µM |  | > 100 µM |  | > 100 µM |  | > 100 µM |  | > 100 µM |  | > 100 µM |  | > 100 µM
8 | CNC(=O)c1cc(COc2nnc(Nc3ccc(Cl)cc3)c3ccoc23)ccn1 | 8.86 µM and > 10 µM | 27.2 µM and > 10 µM | 2.41 µM and 4.62 µM | 10.9 µM and > 10 µM | 7.66 µM and 7.85 µM | > 47.1 µM | 4.21 µM and > 10 µM | 20.9 µM and > 10 µM | 20.6 µM and > 10 µM | > 79 µM | 19.4 µM and > 10 µM | > 82.7 µM | 6.39 µM and > 10 µM | 24.9 µM and > 10 µM | 7.17 µM and > 10 µM | 36.1 µM and > 10 µM | 4.11 µM and > 10 µM | 17.2 µM and > 10 µM | 4.48 µM and > 10 µM | > 42.5 µM
9 | Cc1ccccc1NC(=S)Nc1ccccn1 | > 100 µM | > 100 µM | > 100 µM | > 100 µM | 47.2 µM | > 100 µM | > 100 µM | > 100 µM | > 100 µM | > 100 µM | 62.7 µM | > 100 µM | > 100 µM | > 100 µM | > 100 µM | > 100 µM | > 100 µM | > 100 µM | > 100 µM | > 100 µM
10 | COc1cc2c(cc1OC)C13CCN4C=C5CCOC6CC(=O)N2C1C6C5CC43 (stereo not drawn) |  | > 100 µM |  | > 100 µM |  | > 100 µM |  | > 100 µM |  | > 100 µM |  | > 100 µM |  | > 100 µM |  | > 100 µM |  | > 100 µM |  | > 100 µM
11 | COc1cccc2c1C(=O)c1c(O)c3c(c(O)c1C2=O)CC(O)(C(C)=O)CC3OC1CC(N)C(O)C(C)O1 (stereo not drawn) | 0.0177 µg/mL | 3.98 µg/mL | 0.0481 µg/mL | 0.421 µg/mL | 0.0193 µg/mL | 0.0525 µg/mL |  | 2.02 µg/mL | 0.114 µg/mL | 0.334 µg/mL | 0.0159 µg/mL | 0.165 µg/mL | 0.0286 µg/mL | 0.168 µg/mL |  | 0.484 µg/mL | 0.0663 µg/mL | 0.356 µg/mL | 3.52 µg/mL | 25 µg/mL
12 | Cn1cc(-c2nonc2-c2c[nH]c3ccccc23)c2ccccc21 | 0.477 µM | 12.1 µM | 0.298 µM | 2.32 µM | 0.518 µM | 12.9 µM | 0.375 µM | 7.78 µM | 0.465 µM | 10.5 µM | 0.369 µM | 5.96 µM | 0.352 µM | 2.97 µM | 0.329 µM | 15.3 µM | 0.635 µM | 17.7 µM | 0.378 µM | 14 µM
13 | Cc1ccc(NCCCN2CCN(CCCNc3ccc(C)c4sc5ccccc5c(=O)c34)CC2)c2c(=O)c3ccccc3sc12 |  | > 100 µM |  | 79.6 µM |  | > 100 µM |  | > 100 µM |  | > 100 µM |  | > 100 µM |  | > 100 µM |  | > 100 µM |  | > 100 µM |  | > 100 µM
14 | Cc1cc(C)nc(NC(N)=NCCc2ccccc2)n1 | 3.2 µM | 35.8 µM | 4.41 µM | 54.9 µM | 1.75 µM | 5.39 µM | 3.43 µM | > 100 µM | 2.68 µM | 12.5 µM | 6.45 µM | > 100 µM | 1.64 µM | 5.44 µM | 2.72 µM | 73.6 µM | 2.23 µM | 10.5 µM | 31 µM | > 100 µM
